In US12264146B2, “Rho kinase inhibitor, method for preparing same and uses thereof” (BEIJING INCREASE INNOVATIVE DRUG CO., LTD., priority 2018, dated 2025):
Where a name gives a salt, the structure may show the parent alone.

How the values were obtained:
endothelin (ET-1) = assay: Expression of endothelin (ET-1) in EA.Hy926 endothelial cells, detection kit; assay type: cell-based, human; settings: 48 h; for expression of endothelin in endothelial cells: Detection result of test compound at low dose (0.4 μM) / expression of endothelin in endothelial cells: Detection result of test compound at medium dose (2 μM) / expression of endothelin in endothelial cells: Detection result of test compound at high dose (10 μM): EA.Hy926 cell supernatant
Experimental: (§1) Commercially available cytokine kits were used to detect the effects of the compounds of the present application on vascular endothelium-derived contracting factor endothelin, vascular endothelium-derived relaxing factor endothelial nitric oxide synthase, nitric oxide, and prostacyclin factor. The detection was performed according to the kit instructions. When testing the effect of the compound of the present application on cytokines, a normal control group, a fasudil hydrochloride group, and high-, medium- and low-dose groups of the compounds of the present application were set up for testing. The fasudil hydrochloride used in this test example was purchased from Beijing Sihuan Pharmaceutical Co., Ltd., with the SFDA approval number of H20173349. The EA.Hy926 cells used in this test example were purchased from Suzhou Beina Chuanglian Biotechnology Co., Ltd.
EA.Hy926 cells were taken and inoculated in a 96-well plate at 5×10^4 cells/mL, 100 μL per well, and cultured adherently for 24 hours, then the test compound prepared in DMEM medium was added, and an equal volume of DMEM medium was added in the normal control group, then the cells were cultured at 37° C. for 48 hours, and then the cell supernatant was taken and placed in an EP tube, and centrifuged at 3000 r/min, 4° C. for 15 min. The resulting cell supernatant was transferred to a new EP tube, diluted twice with culture medium, and detected according to the instruction of the human endothelin detection kit (purchased from Wuhan Boster Biological Engineering Co., Ltd., batch number 59113731009), and the detection results were shown in Table 2.

[1] = system: subarachnoid hemorrhage in rats; assay: Rat subarachnoid hemorrhage (SAH) model by intravascular puncture, Sugawara bleeding score; assay type: in vivo; parameters: dose or concentration left out as unconfirmed; settings: tail vein injection, 2 administrations 4 h apart, scored 24 h after first administration (Sugawara)
Experimental: Rat subarachnoid hemorrhage (SAH) model was built by intravascular puncture. After being weighed, the rats were anesthetized with sodium pentobarbital (50 mg/kg) or chloral hydrate (300 mg/kg) by intraperitoneal injection, then fixed on their back and maintained the animal's body temperature at about 37° C. The rats' neck skin was shaved for surgery, a median incision was made on the neck, and muscle and fascia were separated along the inner edge of stemocleidomastoid muscle to expose the main and bifurcation of right common carotid artery, and expose the external and internal carotid arteries.
The bifurcation of internal carotid artery was gently clamped with ophthalmic forceps, the bifurcation of the internal carotid artery and the external carotid artery was pierced with a 6-gauge syringe needle, the ophthalmic forceps holding the bifurcation of internal carotid artery was slightly loosen, and No. 3 fishing thread was used to perform a puncture at the bleeding point, the ophthalmic forceps on the internal carotid artery was loosen, and the fishing thread was inserted into skull. […] After staying for 15 seconds, the thread for puncture was completely removed, and the skin was sutured after compression to stop the bleeding. 1.6 million units of penicillin potassium (400,000 units/ml, 0.2 ml/rat) was intramuscularly injected to avoid wound infection. For the sham operation group, the thread for puncture was removed when resistance was felt without piercing the bifurcation of the anterior cerebral artery and the middle cerebral artery, while the remaining operation steps were the same as the model group. After the operation, the rats were transferred to a thermal insulation blanket, then transferred to a squirrel cage when they were basically awake, and kept normally.
In this test experimental, 32 groups were set, i.e., Groups 1 to 32, in which Group 1 was a normal control group (healthy rats), Group 2 was a sham operation control group (not modeling by puncture), Group 3 was a model control group (modeling by puncture, administrated with normal saline), Group 4 was a positive control group (modeling by puncture, administrated with fasudil hydrochloride injection), and Groups 5 to 32 were test groups of the compounds of the present application (modeling by puncture, respectively administrated with the compounds of the present application); and there were 8 animals (purchased from SPF (Beijing) Biotechnology Co., Ltd., the certificate number was SYXK (Beijing) 2016-0002) in each group, half of them were female and half of them were male. The animals were subjected to fasting for 12 to 18 hours without prohibition of drinking water before modeling. […] The rats were euthanized 24 h after the first administration, and the brains were taken. According to Sugawara's method (Reference: Sugawara T, Ayer R, Jadhav V, et al. A new grading system evaluating bleeding scale in filament perforation subarachnoid hemorrhage rat model. J Neurosci Methods. 2008, 167(2):327-34), the subarachnoid hemorrhage amounts were scored, and the scoring results were as follows: […]

nitric oxide (NO) = assay: Synthesis and secretion of nitric oxide (NO) in EA.Hy926 endothelial cells, NO detection kit; assay type: cell-based; settings: EA.Hy926 cell supernatant, 24 h
Experimental: as §1
EA.Hy926 cells were inoculated in a 24-well plate at 5×10^5 cells/mL, 400 μL per well, and cultured adherently for 18 hours, then the supernatant was discarded, the test compound prepared in DMEM medium was added, and an equal volume of DMEM medium was added in the normal control group, then the cells was cultured for 24 h in incubator, and then the cell supernatant was collected and detected according to the instructions of NO detection kit (purchased from Beyotime Institute of Biotechnology, Cat. No. 062617171017), and the detection results were shown in Table 5.

Structure (SMILES)	expression of endothelin in endothelial cells: Detection result of test compound at low dose (0.4 μM) (endothelin (ET-1)) [pg/mL]	expression of endothelin in endothelial cells: Detection result of test compound at medium dose (2 μM) (endothelin (ET-1)) [pg/mL]	expression of endothelin in endothelial cells: Detection result of test compound at high dose (10 μM) (endothelin (ET-1)) [pg/mL]	effect on the expression and secretion of endothelin (in words) (endothelin (ET-1); high, medium and low doses)	Cerebral hemorrhage volume score (x ± s) [1]	nitric oxide secretion in endothelial cells: Detection result of test compound at low dose (0.4 μM) (nitric oxide (NO)) [μm]	nitric oxide secretion in endothelial cells: Detection result of test compound at medium dose (2 μM) (nitric oxide (NO)) [μm]	nitric oxide secretion in endothelial cells: Detection result of test compound at high dose (10 μM) (nitric oxide (NO)) [μm]
O=S(=O)(c1cccc2cnccc12)N1CCCNCC1 [Fasudil hydrochloride, reference compound]	254.29 ± 3.35	252.58 ± 3.92	325.69 ± 9.78	significantly promote the expression and secretion of endothelin	10.25 ± 3.24	1.131 ± 0.045	1.356 ± 0.045	1.450 ± 0.000
C[C@@H]1CNCCCN1S(=O)(=O)c1cccc2c(O)ncc(C3CC3)c12 [Compound R-YK1600-1, (R)-4-cyclopropyl-5-((2-methyl-1,4-diazacycloheptan-1-yl)sulfonyl)isoquinolin-1-ol]	228.20 ± 2.28	229.34 ± 7.96	227.68 ± 3.34	–	13.37 ± 2.56	1.012 ± 0.053	1.099 ± 0.201	1.148 ± 0.251
COc1nccc2c(S(=O)(=O)N3CCCNC[C@H]3CCC(C)C)cccc12 [Compound R-YK1612, (R)-5-((2-isopentyl-1,4-diazacycloheptan-1-yl)sulfonyl)-1-methoxyisoquinoline]	232.61 ± 9.70	229.98 ± 11.41	249.23 ± 0.75	–	13.05 ± 1.96	0.960 ± 0.134	1.021 ± 0.006	1.114 ± 0.006
COc1nccc2c(S(=O)(=O)N3CCCNC[C@H]3C)cccc12 [Compound R-YK1602, (R)-1-methoxy-5-((2-methyl-1,4-diazacycloheptan-1-yl)sulfonyl)isoquinoline]	263.55 ± 0.12	285.24 ± 13.22	238.19 ± 19.65	–	11.95 ± 2.04	0.878 ± 0.006	0.914 ± 0.032	1.005 ± 0.006
CC[C@@H]1CNCCCN1S(=O)(=O)c1cccc2c(OC)nccc12 [Compound R-YK1610, (R)-5-((2-ethyl-1,4-diazacycloheptan-1-yl)sulfonyl)-1-methoxyisoquinoline]	259.20 ± 2.21	260.34 ± 7.94	238.68 ± 3.34	–	12.83 ± 2.05	0.997 ± 0.057	1.068 ± 0.032	1.121 ± 0.006
C[C@@H]1CNCCCN1S(=O)(=O)c1cccc2c(O)nccc12 [Compound R-YK1601, (R)-5-((2-methyl-1,4-diazacycloheptan-1-yl)sulfonyl)isoquinolin-1-ol]	253.46 ± 19.86	266.61 ± 20.77	243.07 ± 17.37	–	11.75 ± 2.05	0.806 ± 0.057	0.896 ± 0.147	1.131 ± 0.134
COc1ncc(F)c2c(S(=O)(=O)N3CCCNC[C@H]3C)cccc12 [Compound R-YK1605, (R)-4-fluoro-1-methoxy-5-((2-methyl-1,4-diazacycloheptan-1-yl)sulfonyl)isoquinoline]	231.61 ± 9.70	228.98 ± 11.41	259.53 ± 0.75	–	12.95 ± 2.04	0.950 ± 0.134	1.023 ± 0.006	1.122 ± 0.006
O=S(=O)(c1cccc2cnccc12)N1CCCNC[C@H]1C1CC1 [Compound R-YK1608, (R)-5-((2-cyclopropyl-1,4-diazacycloheptan-1-yl)sulfonyl)isoquinoline]	233.55 ± 0.12	229.98 ± 11.41	239.23 ± 0.75	–	13.18 ± 1.97	0.918 ± 0.008	0.984 ± 0.042	1.105 ± 0.007
C[C@@H]1CNCCCN1S(=O)(=O)c1cccc2c(O)ncc(F)c12 [Compound R-YK1604, (R)-4-fluoro-5-((2-methyl-1,4-diazacycloheptan-1-yl)sulfonyl)isoquinolin-1-ol]	232.75 ± 42.51	242.72 ± 20.81	230.03 ± 1.24	–	12.58 ± 1.96	1.009 ± 0.064	0.851 ± 0.032	0.829 ± 0.064
